These results are taken from ChEMBL document CHEMBL1121984 (J Med Chem, 1982).

Each structure is given as a SMILES string. Active and inactive are the calls of the source. No cut-off for these calls is given here. A value given as a limit tells only on which side of the number the result lay.

Test [1] concerns Felis catus. The experiment in a line: Inhibition of the positive chronotropic effect of stimulation of the cardioaccelerator nerve in the anesthetized cat. The test is classed as functional, organism-based.
Test [2] has as its target T1, Dopamine receptor (Bos taurus, UniProt Q95136+P20288). The experiment in a line: Inhibitory binding activity against dopamine receptor using [3H]spiperone as the radioligand in striatal tissue of calf brain. It is filed as tissue-based, Striatum.
Test [3] concerns the target T1, Dopamine receptor. In words: Inhibitory binding activity against dopamine receptor using [3H]ADTN as the radioligand in striatal tissue of calf brain. It is filed as tissue-based, Striatum.
For test [4], the species on record is Felis catus. In words: Inhibition of positive chronotropic effect of the cardioaccelerator was determined. The test is classed as functional. To be noted: read-out: ID50 (the source's name).
In test [5] the target is T1, Dopamine receptor. In words: Inhibitory binding activity against dopamine receptor using [3H]ADTN as the radioligand in striatal tissue of calf brain. The test is classed as tissue-based, Striatum.
In test [6] the target is T1, Dopamine receptor. In words: Inhibitory binding activity against dopamine receptor using [3H]spiperone as the radioligand in striatal tissue of calf brain. It is filed as tissue-based, Striatum.
A short description of test [7]: The compound was tested for its emetic activity in dog, activity expressed as potency ratio. It is filed as functional.
The species named for test [8] is Felis catus. In words: The compound was evaluated for its ability to inhibit the positive chronotropic effect of the cardioaccelerator. It is filed as functional. To be noted: read-out: ID50 (the source's name).
Test [9] has as its system Felis catus. The experiment in a line: The compounds were evaluated for their ability to inhibit the positive chronotropic effect of stimulation of the cardioaccelerator nerve in the anesthetized cat. It is filed as functional. The following applies: read-out: ID50 (the source's name).
In test [10] the test system is Canis familiaris. In words: Effective dose for emetic activity after administration to dog. The test is classed as functional. To be noted: Canis lupus familiaris.

As for `COc1cc2c(cc1OC)CC(N)C2`, the ID50 result in test [1] is “inactive”.
As a reminder, the IC50 is the midpoint of a concentration-inhibition curve. Consider `Br.CN(C)C1Cc2cc(O)c(O)cc2C1`, for which the concentration for half-maximal inhibition (IC50) is 104 µM in test [2] and 6 µM in test [3]. In test [1], the ID50 entry was “Increased heart rate”.
Regarding `NCCc1ccc(O)c(O)c1` [DOPAMINE], the ED50 in [4] turned out to be 0.105 µmol/kg.
In the case of `NC1Cc2ccc(O)c(O)c2C1` (configuration not stated), in [1], the ID50 result was “Increased heart rate at 3umol/kg”.
Consider `CC(C)NC1Cc2ccc(O)c(O)c2C1` (configuration not stated), for which, in test [1], the ID50 entry was “inactive”.
With `CNC1Cc2cc(OC)c(OC)cc2C1`, the ID50 entry in test [1] is “inactive”.
Consider `COc1cc2c(cc1OC)CC(N(C)C(C)C)C2`, for which, in test [1], the ID50 entry was “inactive”.
With `COc1ccc2c(c1OC)CC(N(C)C)C2` (configuration not stated), the figures for the IC50 in test [2] and in test [3] were 100 µM and 2300 µM, respectively. Besides, in test [1], the ID50 result is “inactive”.
As for `CNC1Cc2ccc(OC)c(OC)c2C1` (configuration not stated), in test [1], the ID50 entry is “inactive”.
For `CNC1Cc2ccc(O)c(O)c2C1` (configuration not stated), the ID50 entry in test [1] is given as “Increased heart rate at 3umol/kg”.
Turning to `CCNC1Cc2ccc(O)c(O)c2C1` (configuration not stated), the ED50 in [4] was more than 1 µmol/kg.
Turning to `Br.CCCN(CCC)C1Cc2cc(O)c(O)cc2C1`, the IC50 stood at 17.6 µM in [2] and 412 µM in [3]. Further, in test [4], the ED50 was more than 3 µmol/kg.
With `CCNC1Cc2ccc(OC)c(OC)c2C1` (configuration not stated), the ID50 entry in [1] is “inactive”.
With `Br.CN(C)C1Cc2ccc(O)c(O)c2C1` (configuration not stated), the IC50 in test [5] was 10 µM; in test [6], 91 µM. In test [1], the ID50 result is listed as “Increased heart rate”.
As to `NC1Cc2cc(O)c(O)cc2C1`, the ID50 result in test [1] is given as “Increased heart rate at 3umol/kg”.
`COc1cc2c(cc1OC)CC(N(C)C)C2.Cl`: the IC50 in [2] is 50 µM; in test [3], 400 µM. Further, the ID50 result in [1] is “inactive”.
With `COc1cc2c(cc1OC)CC(NC(C)C)C2`, the ID50 entry in test [1] was “inactive”.
Still for that read-out and setting: next, `CC(C)NC1Cc2cc(O)c(O)cc2C1`: “Increased heart rate at 3umol/kg”; `CNC1Cc2cc(O)c(O)cc2C1`: “Increased heart rate at 3umol/kg”; `CCN(CC)C1Cc2cc(OC)c(OC)cc2C1`: “inactive”.
With `Br.CCN(CC)C1Cc2ccc(OC)c(OC)c2C1` (configuration not stated), the results for the IC50 in test [2] and in test [3] were 29 µM and 1660 µM, respectively. Moreover, the ID50 result in test [1] was “inactive”.
`Br.CCN(CC)C1Cc2cc(O)c(O)cc2C1` gave a 50% inhibitory concentration (IC50) in test [2] of 246 µM. The ID50 result in test [1] is recorded as “Increased heart rate”.
With `Br.CCCN(CCC)C1Cc2ccc(O)c(O)c2C1` (configuration not stated), the Potency ratio in [7] worked out at 1.24. The IC50 in test [2] turned out to be 53.86 µM; in test [3], 10 µM. The ED50 in test [8] is 0.02 µmol/kg.
For `Br.CCN(CC)C1Cc2ccc(O)c(O)c2C1` (configuration not stated) the same measures were 0.26, 220 µM, 39 µM and 0.05 µmol/kg.
On to `COc1ccc2c(c1OC)CC(NC(C)C)C2` (configuration not stated), for which the ID50 entry in test [1] is “inactive”.
Regarding `CN1C[C@H](CC#N)C[C@@H]2c3cccc4[nH]c(Cl)c(c34)C[C@H]21` [LERGOTRILE], the ED50 in test [9] amounted to 0.27 µmol/kg. For the same compound, the IC50 in test [2] came to 23.7 µM; in test [3] it was 4.5 µM.
Turning to `CN1CCc2cccc3c2[C@H]1Cc1ccc(O)c(O)c1-3` [APOMORPHINE], the ED50 in [10] is 0.07 mg/kg; in test [4], 0.022 µmol/kg.
As for `COc1ccc2c(c1OC)CC(N)C2` (configuration not stated), the ID50 result in test [1] is “inactive”.
Consider `CC(C)N(C)C1Cc2cc(O)c(O)cc2C1`, for which the ID50 entry in test [1] was “Increased heart rate at 3umol/kg”.
In the case of `CCCNC1Cc2ccc(OC)c(OC)c2C1.Cl` (configuration not stated), the IC50 in test [2] was determined as 105 µM; in test [3] it was 51000 µM. The ID50 result in test [1] was “inactive”.
Regarding `CCCNC1Cc2ccc(O)c(O)c2C1` (configuration not stated), the ID50 entry in [1] was “inactive”.
For `CCCN(CCC)C1Cc2cc(OC)c(OC)cc2C1.Cl`, in test [2], the IC50 was 10.4 µM. In addition, in [1], the ID50 result was “inactive”.
